Some test systems named below: MDA-N; LOX IMVI; HCC 2998; TK-10; SF-268; SN12C; SF-295; Malme-3M; DU-145; RPMI-8226; SR; NCI-H460; UACC-62; SW-620; ACHN; SF-539; MOLT-4; HCT-116; SK-OV-3.
What all share (experiment): DTP human tumour cell line panel, 48 h

The source of these data is ChEMBL document CHEMBL1201862, “PubChem BioAssay data set” (2004).

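In this assay, cells in 96-well plates receive the compound at five concentrations for 48 hours. Endpoints are linearly interpolated between the surrounding concentrations. Abbreviation: GI50, concentration required for 50% inhibition of growth.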 The source made the active and inactive calls. No stated cut-off is given here; in the data, active = GI50 up to about 1.1 µM and inactive = higher.

For orientation: GI50 means the concentration at which growth is held to half of that of the control. As for `O=C1NCC2(CCNCC2)N1c1ccccc1`, the GI50 in the test on MDA-N, in the test with LOX IMVI, in the test on HCC 2998, with TK-10, with SF-268 and in the test with SN12C was > 100 µM (inactive) each time. In addition, the GI50 with SF-295, with Malme-3M, with DU-145, in the test with RPMI-8226, in the test with SR and in the test with NCI-H460 was > 100 µM (inactive) in each case. Further, the GI50 in the test on UACC-62, with SW-620, with ACHN, in the test on SF-539, with MOLT-4 and in the test with HCT-116 was > 100 µM (inactive) in each case.

`O=C(O[C@H]1[C@@H](O)[C@H](n2cnc3c(Cl)ncnc32)O[C@@H]1COC(c1ccccc1)(c1ccccc1)c1ccccc1)c1ccccc1`: the GI50 in the test on MDA-N is 35.9 µM (inactive); in the test on LOX IMVI, 4.91 µM (inactive); with SK-OV-3, 71 µM (inactive); in the test with HCC 2998, 16.1 µM (inactive); in the test on TK-10, 45.2 µM (inactive); in the test with SF-268, 15.4 µM (inactive). The GI50 in the test on SN12C was 11.9 µM (inactive); in the test with SF-295 it was 19.8 µM (inactive); with DU-145 it was 1.91 µM (inactive); in the test with RPMI-8226, 2.25 µM (inactive); in the test with SR, 2.67 µM (inactive); with NCI-H460, 17.5 µM (inactive). The GI50 is 39.5 µM (inactive) in the test with UACC-62; 54.5 µM (inactive) in the test on SW-620; 15.7 µM (inactive) in the test on ACHN; 20 µM (inactive) with SF-539; 3.04 µM (inactive) with MOLT-4; 40.9 µM (inactive) in the test on HCT-116.

Take `CCSCCCC(=O)O`: the GI50 with MDA-N, in the test with LOX IMVI, in the test with SK-OV-3, in the test with HCC 2998, in the test with TK-10 and in the test with SF-268 was > 100 µM (inactive) throughout. Also, the GI50 in the test on SN12C, in the test on SF-295, in the test on Malme-3M, in the test with DU-145, in the test with RPMI-8226 and in the test with SR was > 100 µM (inactive) in each case. Also, the GI50 in the test on UACC-62, with SW-620, in the test with ACHN, with MOLT-4 and with HCT-116 was > 100 µM (inactive) each time.

As to `COc1ccc(C(C)NNC(=O)c2cc[n+]([BH2-]C#N)cc2)c(OC)c1` (centres undefined), the GI50 in the test on MDA-N, with LOX IMVI, in the test with HCC 2998, with TK-10, in the test with SF-268 and with SN12C was > 100 µM (inactive) each time. For the same molecule, the GI50 in the test with SF-295, in the test on Malme-3M, with DU-145, with RPMI-8226, with SR and in the test on NCI-H460 was > 100 µM (inactive) in each case. The GI50 in the test on UACC-62, in the test with SW-620, in the test with ACHN, with SF-539 and with MOLT-4 was > 100 µM (inactive) each time.

Regarding `CC(C)CCC/C(CBr)=C(\Cl)CCl`, the GI50 in the test with MDA-N is 1.83 µM (inactive); with LOX IMVI, 0.0728 µM (active); in the test on SK-OV-3, 7.82 µM (inactive); in the test on HCC 2998, 8.59 µM (inactive); with TK-10, 1.88 µM (inactive); in the test with SF-268, 3.55 µM (inactive). In addition, the GI50 with SN12C was 2.82 µM (inactive); in the test on SF-295 it was 13.3 µM (inactive); in the test with Malme-3M, 2.59 µM (inactive); in the test on DU-145, 5.52 µM (inactive); in the test with RPMI-8226 it was 0.948 µM (active); in the test on SR it was 0.746 µM (active). Moreover, the GI50 was 5.05 µM (inactive) in the test on NCI-H460; 1.5 µM (inactive) in the test with SW-620; 11.2 µM (inactive) with ACHN; 10.4 µM (inactive) in the test on SF-539; 0.653 µM (active) in the test on MOLT-4; 2.69 µM (inactive) in the test on HCT-116.

For the molecule `O=C(O)CNn1c(SCC(=O)O)nnc(/C=C/c2c(O)ccc3ccccc23)c1=O`, the GI50 in the test with MDA-N was 48.4 µM (inactive); in the test with LOX IMVI, 7.5 µM (inactive); in the test on SK-OV-3, 5.53 µM (inactive); in the test with HCC 2998 it was > 100 µM (inactive); with SF-268, 24.4 µM (inactive); with SN12C it was 11.2 µM (inactive). The GI50 with SF-295 is 3.89 µM (inactive); in the test on Malme-3M, 40.3 µM (inactive); in the test on DU-145, 3.16 µM (inactive); with RPMI-8226, 29.8 µM (inactive); with SR it was 32.3 µM (inactive); in the test on NCI-H460 it was 4.91 µM (inactive). For the same molecule, the GI50 with UACC-62 is 21.3 µM (inactive); with SW-620, 44.9 µM (inactive); with ACHN it was 33.8 µM (inactive); in the test with SF-539 it was > 100 µM (inactive); in the test on HCT-116 it was 28.8 µM (inactive).

For the molecule `COc1ccc(-c2c(N)n(-c3cccc(C(=O)O)c3)c(=O)c3cc([N+](=O)[O-])ccc23)cc1`, the GI50 in the test on MDA-N, with LOX IMVI, in the test on SK-OV-3, in the test on HCC 2998, with TK-10 and with SF-268 was > 100 µM (inactive) throughout. In addition, the GI50 in the test on SF-295, with DU-145, with RPMI-8226, with SR, in the test on NCI-H460 and in the test with UACC-62 was > 100 µM (inactive) throughout. The GI50 with SW-620, in the test on ACHN, with SF-539, in the test with MOLT-4 and in the test on HCT-116 was > 100 µM (inactive) each time.

With `CCOc1cnc(C(O)(c2ccccc2)c2ccccc2)o1`, the GI50 with MDA-N is > 100 µM (inactive); with LOX IMVI, 69.7 µM (inactive); in the test with SK-OV-3, > 100 µM (inactive); in the test with HCC 2998, > 100 µM (inactive); in the test with SF-268, > 100 µM (inactive); with SN12C, > 100 µM (inactive). The GI50 in the test on SF-295, in the test on Malme-3M, with DU-145, in the test on RPMI-8226, with SR and with NCI-H460 was > 100 µM (inactive) each time. The GI50 in the test with UACC-62, in the test on SW-620, in the test with ACHN, in the test with SF-539, with MOLT-4 and with HCT-116 was > 100 µM (inactive) each time.

On to `CCCCCCCCCCCCC(O)C1CCC(C(O)CCCCCCC(O)CCCCCCCC2=CC(C)OC2=O)O1` (centres undefined), for which the GI50 in the test with MDA-N was 17.7 µM (inactive); with LOX IMVI, 13 µM (inactive); with HCC 2998, 30.9 µM (inactive); in the test with TK-10, 35.4 µM (inactive); in the test with SF-268 it was 6.53 µM (inactive); with SN12C it was 25.8 µM (inactive). In addition, the GI50 in the test on SF-295 is 3.86 µM (inactive); in the test on Malme-3M, 25.9 µM (inactive); in the test on DU-145, > 10 µM (inactive); in the test with RPMI-8226, 7.91 µM (inactive); with SR, 0.407 µM (active); with NCI-H460, 12.9 µM (inactive). For the same molecule, the GI50 is > 10 µM (inactive) in the test with UACC-62; 8.3 µM (inactive) with SW-620; 2.48 µM (inactive) in the test with ACHN; > 10 µM (inactive) in the test on SF-539; 7.29 µM (inactive) in the test on MOLT-4; 0.127 µM (active) with HCT-116.

`O=Cc1ccc2ccocc1-2`: the GI50 with MDA-N, in the test on LOX IMVI, in the test on SK-OV-3, in the test with HCC 2998, in the test on TK-10 and in the test with SF-268 was > 100 µM (inactive) each time. Besides, the GI50 in the test with SN12C, with SF-295, with DU-145, in the test with RPMI-8226, in the test on SR and in the test with NCI-H460 was > 100 µM (inactive) each time. In addition, the GI50 with UACC-62, in the test on SW-620, with ACHN, in the test with SF-539, with MOLT-4 and in the test on HCT-116 was > 100 µM (inactive) in each case.

With `CC(C)COP(C)(=O)C(N)(C(F)(F)F)C(F)(F)F` (centres undefined), the GI50 in the test with MDA-N, with LOX IMVI, with SK-OV-3, in the test on HCC 2998, in the test on TK-10 and in the test on SF-268 was > 100 µM (inactive) each time. Besides, the GI50 in the test with SN12C, in the test with SF-295, in the test with Malme-3M, in the test on DU-145, in the test with RPMI-8226 and with SR was > 100 µM (inactive) in each case. Further, the GI50 in the test with UACC-62, with SW-620, in the test on ACHN, with SF-539, in the test with MOLT-4 and in the test on HCT-116 was > 100 µM (inactive) in each case.
